This passage reports inhibition and IC50 results from ChEMBL document CHEMBL4806968, “Hipk inhibitors and methods of use thereof” (2020).

As a reminder, the inhibition is how much of the control response was suppressed. Read a low inhibition as little suppression. As usually defined, the IC50 is the point on the concentration scale where inhibition reaches its midpoint. The low end stands for greater potency in that assay, the high end for weaker potency in that assay.

Assay [1] deals with T1, Homeodomain-interacting protein kinase 4 (Homo sapiens) (UniProt Q8NE63).
T1 sequence (whole entry): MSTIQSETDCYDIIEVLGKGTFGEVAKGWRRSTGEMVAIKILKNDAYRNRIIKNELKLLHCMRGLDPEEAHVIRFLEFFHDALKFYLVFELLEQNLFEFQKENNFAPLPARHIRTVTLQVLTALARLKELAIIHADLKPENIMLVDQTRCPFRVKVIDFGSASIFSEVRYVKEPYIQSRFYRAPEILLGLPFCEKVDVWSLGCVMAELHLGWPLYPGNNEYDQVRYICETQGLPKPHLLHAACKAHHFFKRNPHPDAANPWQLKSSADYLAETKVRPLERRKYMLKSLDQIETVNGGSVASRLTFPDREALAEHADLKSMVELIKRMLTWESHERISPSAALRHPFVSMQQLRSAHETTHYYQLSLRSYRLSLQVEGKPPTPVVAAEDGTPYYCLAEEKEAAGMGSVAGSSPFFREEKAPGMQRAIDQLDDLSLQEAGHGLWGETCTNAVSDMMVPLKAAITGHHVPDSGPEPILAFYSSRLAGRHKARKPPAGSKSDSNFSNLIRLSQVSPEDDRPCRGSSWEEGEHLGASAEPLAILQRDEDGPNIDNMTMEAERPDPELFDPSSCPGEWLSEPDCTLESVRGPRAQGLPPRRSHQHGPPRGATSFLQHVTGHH
Description: Inhibition of HIPK4 (unknown origin) at 0.5 uM relative to control.

Assay [2] addresses T2, Ephrin type-B receptor 4 (Homo sapiens) (UniProt P54760).
T2 sequence (whole entry): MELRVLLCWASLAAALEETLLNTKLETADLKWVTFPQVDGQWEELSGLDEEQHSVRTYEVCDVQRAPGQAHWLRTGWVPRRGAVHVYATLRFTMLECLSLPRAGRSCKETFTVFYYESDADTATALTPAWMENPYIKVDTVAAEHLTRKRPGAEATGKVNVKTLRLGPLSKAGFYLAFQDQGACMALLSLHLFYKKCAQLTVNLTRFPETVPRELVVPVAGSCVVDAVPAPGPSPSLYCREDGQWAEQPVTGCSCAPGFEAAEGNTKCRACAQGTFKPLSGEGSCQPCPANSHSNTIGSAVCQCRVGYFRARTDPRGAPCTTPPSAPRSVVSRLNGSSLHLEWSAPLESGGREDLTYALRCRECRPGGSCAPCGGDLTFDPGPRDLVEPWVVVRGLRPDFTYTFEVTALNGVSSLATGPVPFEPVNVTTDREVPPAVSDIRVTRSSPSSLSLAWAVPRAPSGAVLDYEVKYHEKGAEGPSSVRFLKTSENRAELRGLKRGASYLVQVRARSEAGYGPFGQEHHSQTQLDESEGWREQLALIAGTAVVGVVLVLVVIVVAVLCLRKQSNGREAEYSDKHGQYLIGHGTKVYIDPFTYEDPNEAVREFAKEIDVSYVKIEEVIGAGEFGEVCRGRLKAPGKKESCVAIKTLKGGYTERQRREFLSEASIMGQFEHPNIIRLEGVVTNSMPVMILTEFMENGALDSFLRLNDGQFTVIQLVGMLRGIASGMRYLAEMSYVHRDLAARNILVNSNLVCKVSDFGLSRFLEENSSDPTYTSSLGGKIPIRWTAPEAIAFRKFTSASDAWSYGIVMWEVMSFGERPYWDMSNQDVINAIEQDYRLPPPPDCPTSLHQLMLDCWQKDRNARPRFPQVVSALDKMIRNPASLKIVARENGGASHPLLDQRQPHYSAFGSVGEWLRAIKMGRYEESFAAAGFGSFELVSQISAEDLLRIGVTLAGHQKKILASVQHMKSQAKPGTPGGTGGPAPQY
Description: Inhibition of EPHB4 (unknown origin) at 0.5 uM relative to control.

Assay [3] concerns the target T3, Homeodomain-interacting protein kinase 4 (Homo sapiens, UniProt Q8NE63).
T3 sequence (Q8NE63 whole entry): T1 sequence (whole entry)
Kind of assay: Inhibition of HIPK4 (unknown origin).

The target of assay [4] is Mast/stem cell growth factor receptor Kit (Homo sapiens) (UniProt P10721). Description: Inhibition of KIT (unknown origin) at 0.5 uM relative to control.
Assay [5] concerns the target Serine/threonine-protein kinase 10 (Homo sapiens) (UniProt O94804). Kind of assay: Inhibition of LOK (unknown origin) at 0.5 uM relative to control.
The target in assay [6] is T4, Ephrin type-A receptor 8 (Homo sapiens) (UniProt P29322).
T4 sequence (whole entry): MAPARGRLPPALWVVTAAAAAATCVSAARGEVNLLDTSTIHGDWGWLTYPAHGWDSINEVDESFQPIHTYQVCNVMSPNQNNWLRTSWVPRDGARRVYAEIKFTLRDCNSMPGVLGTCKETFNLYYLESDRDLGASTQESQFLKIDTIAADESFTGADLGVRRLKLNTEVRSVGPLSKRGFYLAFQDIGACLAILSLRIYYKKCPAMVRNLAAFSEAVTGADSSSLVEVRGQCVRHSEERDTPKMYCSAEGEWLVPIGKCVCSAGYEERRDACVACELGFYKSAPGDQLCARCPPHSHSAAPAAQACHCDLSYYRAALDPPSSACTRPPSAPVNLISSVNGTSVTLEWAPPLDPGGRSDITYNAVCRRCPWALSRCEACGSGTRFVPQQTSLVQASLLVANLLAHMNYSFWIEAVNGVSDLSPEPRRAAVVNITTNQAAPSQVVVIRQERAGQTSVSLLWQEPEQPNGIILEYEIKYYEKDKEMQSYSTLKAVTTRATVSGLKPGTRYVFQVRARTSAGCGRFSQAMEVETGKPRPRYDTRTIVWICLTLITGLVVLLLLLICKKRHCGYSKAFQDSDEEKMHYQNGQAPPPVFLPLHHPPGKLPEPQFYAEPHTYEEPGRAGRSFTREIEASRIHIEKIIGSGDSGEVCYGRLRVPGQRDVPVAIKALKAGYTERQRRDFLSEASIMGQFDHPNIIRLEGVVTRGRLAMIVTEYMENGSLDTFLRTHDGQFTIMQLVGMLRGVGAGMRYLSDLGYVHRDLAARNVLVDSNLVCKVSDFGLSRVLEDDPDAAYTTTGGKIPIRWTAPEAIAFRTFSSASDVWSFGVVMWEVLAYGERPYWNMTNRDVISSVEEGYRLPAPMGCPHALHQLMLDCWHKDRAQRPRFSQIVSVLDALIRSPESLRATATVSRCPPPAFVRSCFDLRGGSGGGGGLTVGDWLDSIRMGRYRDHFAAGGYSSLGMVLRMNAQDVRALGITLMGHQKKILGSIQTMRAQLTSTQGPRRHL
Kind of assay: Inhibition of EPH-A8 (unknown origin) at 0.5 uM relative to control.

For assay [7], the target named is BDNF/NT-3 growth factors receptor (Homo sapiens) (UniProt Q16620). Kind of assay: Inhibition of TRKB (unknown origin) at 0.5 uM relative to control.
The target in assay [8] is High affinity nerve growth factor receptor (Homo sapiens) (UniProt P04629). Description: Inhibition of TRKA (unknown origin) at 0.5 uM relative to control.

The structures appear in SMILES notation.

Sequence of Mast/stem cell growth factor receptor Kit (Homo sapiens) (P10721 whole entry): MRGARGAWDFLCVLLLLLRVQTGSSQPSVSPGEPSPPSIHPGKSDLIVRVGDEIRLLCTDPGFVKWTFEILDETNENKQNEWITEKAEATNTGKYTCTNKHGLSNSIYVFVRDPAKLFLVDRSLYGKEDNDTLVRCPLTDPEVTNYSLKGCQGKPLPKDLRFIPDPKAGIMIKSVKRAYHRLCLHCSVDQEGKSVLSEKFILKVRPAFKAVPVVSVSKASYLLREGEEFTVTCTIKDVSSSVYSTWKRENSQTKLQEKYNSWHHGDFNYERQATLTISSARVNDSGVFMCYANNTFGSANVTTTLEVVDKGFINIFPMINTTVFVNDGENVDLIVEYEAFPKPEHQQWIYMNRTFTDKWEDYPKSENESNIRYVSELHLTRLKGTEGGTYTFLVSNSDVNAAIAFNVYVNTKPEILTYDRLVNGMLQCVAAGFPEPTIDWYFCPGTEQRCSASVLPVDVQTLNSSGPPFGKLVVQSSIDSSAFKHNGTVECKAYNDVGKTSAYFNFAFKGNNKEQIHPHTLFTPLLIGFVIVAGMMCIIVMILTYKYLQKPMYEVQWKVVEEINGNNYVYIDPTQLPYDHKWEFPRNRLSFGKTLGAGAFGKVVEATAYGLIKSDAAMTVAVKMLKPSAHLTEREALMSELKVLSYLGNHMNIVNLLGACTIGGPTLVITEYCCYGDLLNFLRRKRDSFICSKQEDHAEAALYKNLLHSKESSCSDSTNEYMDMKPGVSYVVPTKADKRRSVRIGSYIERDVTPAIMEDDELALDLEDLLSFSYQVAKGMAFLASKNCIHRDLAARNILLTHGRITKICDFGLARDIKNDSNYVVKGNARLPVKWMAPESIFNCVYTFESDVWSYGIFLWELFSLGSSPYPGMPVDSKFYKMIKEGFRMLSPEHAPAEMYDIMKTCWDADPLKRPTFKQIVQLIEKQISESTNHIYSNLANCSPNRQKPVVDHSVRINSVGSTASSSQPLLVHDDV
Sequence of Serine/threonine-protein kinase 10 (Homo sapiens) (O94804 whole entry, looked up): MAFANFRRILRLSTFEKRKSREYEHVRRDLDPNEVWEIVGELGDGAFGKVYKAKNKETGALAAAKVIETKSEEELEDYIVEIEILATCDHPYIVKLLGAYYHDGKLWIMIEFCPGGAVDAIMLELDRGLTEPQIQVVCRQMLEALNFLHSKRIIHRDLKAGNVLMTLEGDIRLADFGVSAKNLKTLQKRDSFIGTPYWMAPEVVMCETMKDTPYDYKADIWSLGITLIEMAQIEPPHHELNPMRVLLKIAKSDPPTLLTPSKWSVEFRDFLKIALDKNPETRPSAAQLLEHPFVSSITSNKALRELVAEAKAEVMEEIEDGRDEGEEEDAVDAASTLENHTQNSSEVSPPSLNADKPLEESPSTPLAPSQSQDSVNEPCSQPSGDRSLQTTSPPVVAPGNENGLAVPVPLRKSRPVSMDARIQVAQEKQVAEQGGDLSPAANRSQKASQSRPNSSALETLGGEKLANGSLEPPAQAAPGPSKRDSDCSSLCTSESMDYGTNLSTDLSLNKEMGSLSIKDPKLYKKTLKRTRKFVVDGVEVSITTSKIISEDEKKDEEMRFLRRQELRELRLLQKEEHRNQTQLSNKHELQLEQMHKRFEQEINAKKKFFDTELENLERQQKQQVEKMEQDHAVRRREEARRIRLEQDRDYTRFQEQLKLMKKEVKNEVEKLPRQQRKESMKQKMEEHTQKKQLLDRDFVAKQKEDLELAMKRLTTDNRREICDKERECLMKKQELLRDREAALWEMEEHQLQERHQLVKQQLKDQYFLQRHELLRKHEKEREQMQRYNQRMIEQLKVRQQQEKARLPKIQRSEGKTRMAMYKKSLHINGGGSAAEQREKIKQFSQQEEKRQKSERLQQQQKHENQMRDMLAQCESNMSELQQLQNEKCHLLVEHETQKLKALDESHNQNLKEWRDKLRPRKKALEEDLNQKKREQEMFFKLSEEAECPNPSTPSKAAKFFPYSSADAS
Sequence of High affinity nerve growth factor receptor (Homo sapiens) (P04629 33-796 limits assumed): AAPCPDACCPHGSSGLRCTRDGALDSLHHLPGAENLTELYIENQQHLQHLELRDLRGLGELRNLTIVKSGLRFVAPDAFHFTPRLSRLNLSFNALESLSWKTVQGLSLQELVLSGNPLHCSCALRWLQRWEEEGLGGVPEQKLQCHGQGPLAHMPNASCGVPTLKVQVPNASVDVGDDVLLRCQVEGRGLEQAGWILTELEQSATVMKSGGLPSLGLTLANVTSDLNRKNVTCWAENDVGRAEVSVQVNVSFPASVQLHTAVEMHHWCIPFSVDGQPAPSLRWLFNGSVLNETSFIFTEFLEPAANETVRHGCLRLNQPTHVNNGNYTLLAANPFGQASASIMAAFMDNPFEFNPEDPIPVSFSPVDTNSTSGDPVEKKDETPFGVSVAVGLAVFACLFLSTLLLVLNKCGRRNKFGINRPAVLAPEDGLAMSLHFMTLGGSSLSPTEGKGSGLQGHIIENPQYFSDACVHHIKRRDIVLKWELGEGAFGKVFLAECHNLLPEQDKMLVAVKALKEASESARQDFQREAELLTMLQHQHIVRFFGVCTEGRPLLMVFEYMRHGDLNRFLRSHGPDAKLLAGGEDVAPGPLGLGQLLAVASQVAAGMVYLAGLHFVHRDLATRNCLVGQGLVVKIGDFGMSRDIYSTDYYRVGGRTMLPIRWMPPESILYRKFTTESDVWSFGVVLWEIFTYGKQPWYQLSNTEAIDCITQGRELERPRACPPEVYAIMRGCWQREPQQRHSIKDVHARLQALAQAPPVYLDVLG
Sequence of BDNF/NT-3 growth factors receptor (Homo sapiens) (Q16620 32-822 limits assumed): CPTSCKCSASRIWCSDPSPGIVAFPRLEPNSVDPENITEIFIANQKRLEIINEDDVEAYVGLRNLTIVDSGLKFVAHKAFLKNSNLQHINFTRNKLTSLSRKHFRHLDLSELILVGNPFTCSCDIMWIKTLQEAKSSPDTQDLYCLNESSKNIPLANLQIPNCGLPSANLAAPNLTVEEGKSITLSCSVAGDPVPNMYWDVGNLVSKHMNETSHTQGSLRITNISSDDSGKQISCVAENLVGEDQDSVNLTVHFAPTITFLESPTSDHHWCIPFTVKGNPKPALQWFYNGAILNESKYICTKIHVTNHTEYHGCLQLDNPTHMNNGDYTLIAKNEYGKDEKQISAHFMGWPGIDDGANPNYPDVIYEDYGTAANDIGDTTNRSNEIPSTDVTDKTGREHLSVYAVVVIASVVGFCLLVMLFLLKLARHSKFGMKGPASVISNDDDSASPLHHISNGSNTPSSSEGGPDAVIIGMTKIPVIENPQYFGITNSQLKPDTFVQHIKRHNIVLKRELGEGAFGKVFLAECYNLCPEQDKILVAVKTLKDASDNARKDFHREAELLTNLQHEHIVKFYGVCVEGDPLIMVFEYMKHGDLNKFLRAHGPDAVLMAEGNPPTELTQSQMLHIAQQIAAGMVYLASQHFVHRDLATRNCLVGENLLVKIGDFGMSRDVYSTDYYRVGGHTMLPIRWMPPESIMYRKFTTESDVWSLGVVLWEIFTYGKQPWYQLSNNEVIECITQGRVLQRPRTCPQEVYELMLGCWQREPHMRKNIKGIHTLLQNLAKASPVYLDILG

In the case of `CNC(=O)c1cc(Oc2ccc(NC(=O)c3nc(C(F)(F)F)sc3-c3ccc(F)cc3)cc2)ccn1`, the inhibition in assay [1] amounted to 95%; in assay [2], 24%; in assay [4], 33%; in assay [5], 58%; in assay [6], 50%. Moreover, half-maximal inhibition in assay [3] (IC50) required 9.6 nM.

For the molecule `CNC(=O)c1cc(Oc2ccc(NC(=O)c3nc(SC)oc3-c3ccc(F)cc3)cc2F)ccn1`, the inhibition in assay [7] is 36%; in assay [8], 43%; in assay [1], 98%; in assay [2], 43%; in assay [5], 55%; in assay [6], 42%. The molecule further showed an IC50 in assay [3] of 2.8 nM.

For the molecule `CNC(=O)c1cc(Oc2ccc(NC(=O)c3nc(NC)sc3-c3ccc(F)cc3)cc2)ccn1`, the inhibition in assay [7] worked out at 71%; in assay [8] it was 58%; in assay [1], 96%; in assay [4] it was 47%; in assay [5], 50%; in assay [6], 58%. The molecule further registered an IC50 in assay [3] of 5.2 nM.

For `CNC(=O)c1cc(Oc2ccc(NC(=O)c3nc(SC)n(CCN(C)C)c3-c3ccc(F)cc3)cc2)ccn1`, the inhibition in assay [7] turned out to be 51%; in assay [8] it was 42%; in assay [1] it was 91%; in assay [2], 25%; in assay [4] it was 27%; in assay [5], 47%. The molecule also displayed an inhibition in assay [6] of 57%. In assay [3], this molecule showed an IC50 of 23 nM.

Take `CSc1nc(C(=O)Nc2ccc(Oc3cc4cnn(C)c4cc3Br)cc2)c(-c2ccc(F)cc2)o1`: the inhibition in assay [1] is 87%; in assay [5], 36%; in assay [6], 25%. The IC50 in assay [3] turned out to be 32 nM.

As to `CNC(=O)c1cc(Oc2ccc(NC(=O)c3nc(SC)[nH]c3-c3ccc(F)cc3)cc2)ccn1`, the inhibition was determined as 83% in assay [7]; 97% in assay [1]; 82% in assay [2]; 93% in assay [5]; 96% in assay [6]. In addition, in assay [3], the midpoint of inhibition, the IC50, lay at 19 nM.

Turning to `CNC(=O)c1cc(Oc2ccc(NC(=O)c3nc(S(C)(=O)=O)sc3-c3ccc(F)cc3)cc2)ccn1`, the inhibition came out at 36% in assay [8], 96% in assay [1], 24% in assay [2] and 25% in assay [4]. The molecule also gave an IC50 in assay [3] of 5.1 nM.

In the case of `CNC(=O)c1cc(Oc2ccc(NC(=O)c3nc(SC)oc3-c3ccc(F)cc3)cc2)ccn1`, the inhibition in assay [7] was found to be 40%; in assay [8] it was 47%; in assay [1], 99%; in assay [2], 42%; in assay [4] it was 40%; in assay [5], 66%. Besides, the IC50 in assay [3] came out at 3.3 nM.

For `CNC(=O)c1cc(Oc2ccc(NC(=O)c3n[nH]nc3-c3ccc(F)cc3)cc2)ccn1`, the inhibition in assay [7] was 40%; in assay [8], 43%; in assay [1], 84%; in assay [4], 65%; in assay [5], 26%. Moreover, it took 49 nM to reach half-maximal inhibition in assay [3] (IC50).
